Target: activated ERK2 (Homo sapiens (Human), UniProt P28482)
Assay: Activated ERK2 (20 pM) Kinase Assay (AlphaScreen, ERKtide phosphorylation)
Type: biochemical
Conditions: 0.02 nM ERK2, 400 nM ERKtide peptide, 35 μM ATP, 30 min preincubation
Method: Activated ERK2 (20 pM) Kinase Assay:
The assay was carried out in 20 mM HEPES [pH 7.5], 5 mM MgCl2, 1 mM DTT, 0.01% Tween-20, 0.05% BSA using 0.02 nM ERK2, 400 nM ERKtide peptide and 35 μM ATP (all concentrations are final in the reaction) in a total volume of 10.25 μL. […] Compound dilution series were prepared in 100% DMSO. ERK2 was preincubated with compounds for 30 minutes at ambient temperature. Reaction was initiated by addition of a substrate cocktail of ERKtide peptide and ATP and was allowed to proceed for 4 hours at ambient temperature. Reaction was terminated by addition of 10 μL of a 2× stop buffer consisting of 100 mM Tris-Cl [pH 7.5], 25 mM EDTA, 0.01% Tween 20, 20 μg/mL of AlphaScreen Protein A Acceptor Beads, 20 μg/mL of Streptavidin Donor Beads (PerkinElmer, Waltham, Mass.), and 1:1000 dilution phospho-EGF Receptor (Thr669) antibody (Cat #8808, Cell Signaling Technology, Danvers, Mass.). Terminated reactions were read, after overnight incubation in the dark, on an EnVision Multilabel Plate Reader (PerkinElmer, Waltham, Mass.), with excitation and emission wavelengths set to 680 nm and 570 nm, respectively. IC50 values were determined using a four-parameter fit.

activated ERK2, sequence (P28482 whole entry): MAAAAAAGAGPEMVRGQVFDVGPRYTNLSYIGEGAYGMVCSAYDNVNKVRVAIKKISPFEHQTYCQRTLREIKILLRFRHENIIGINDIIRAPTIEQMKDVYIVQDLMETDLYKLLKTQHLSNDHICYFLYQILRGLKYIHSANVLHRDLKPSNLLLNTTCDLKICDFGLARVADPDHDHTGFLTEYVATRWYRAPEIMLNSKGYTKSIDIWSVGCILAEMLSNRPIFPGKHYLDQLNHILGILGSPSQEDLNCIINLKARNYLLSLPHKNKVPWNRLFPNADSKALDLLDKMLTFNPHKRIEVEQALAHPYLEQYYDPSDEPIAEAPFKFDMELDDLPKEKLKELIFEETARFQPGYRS

IC50 [nM]	SMILES
0.0363	Nc1ncc([C@@H]2CC[C@@H](O)[C@@H](F)C2)nc1-c1ccc(C(=O)N[C@H](CO)c2cc(F)cc(Br)c2)c(F)c1 [Example 187, 4-(3-amino-6-((1R,3S,4R)-3-fluoro-4-hydroxycyclohexyl)pyrazin-2-yl)-N—((S)-1-(3-bromo-5-fluorophenyl)-2-hydroxyethyl)-2-fluorobenzamide]
0.0139	Nc1ncc([C@H]2CC[C@H](O)[C@@H](F)C2)nc1-c1ccc(C(=O)N[C@H](CO)c2cc(F)cc(I)c2)c(F)c1 [Example 189, 4-(3-amino-6-((1S,3S,4S)-3-fluoro-4-hydroxycyclohexyl)pyrazin-2-yl)-2-fluoro-N—((S)-1-(3-fluoro-5-iodophenyl)-2-hydroxyethyl)benzamide]
7.33	Nc1ncc([C@H]2CC[C@H](O)CC2)nc1-c1ccc(C(=O)N[C@@H]2C[C@H]2c2ccccc2)c(F)c1 [Example 203, 4-(3-amino-6-((1r,4R)-4-hydroxycyclohexyl)pyrazin-2-yl)-2-fluoro-N-((1R,2S)-2-phenylcyclopropyl)benzamide]
54.6	N#Cc1cc(-c2cc(C3CCOCC3)cnc2N)cc(F)c1C(=O)NCc1ccccc1 [Example 204, 4-(2-amino-5-(tetrahydro-2H-pyran-4-yl)pyridin-3-yl)-N-benzyl-2-cyano-6-fluorobenzamide]
0.0104	Cc1nn(C(F)F)cc1-c1cnc(N)c(-c2ccc(C(=O)N[C@H](CO)c3cc(F)cc(CF)c3)c(F)c2)c1 [Example 206, (S)-4-(2-amino-5-(1-(difluoromethyl)-3-methyl-1H-pyrazol-4-yl)pyridin-3-yl)-2-fluoro-N-(1-(3-fluoro-5-(fluoromethyl)phenyl)-2-hydroxyethyl)benzamide]
0.0505	NC[C@@H](NC(=O)c1ccc(-c2nc(C3CCCCC3)cnc2N)cc1F)c1cccc(Cl)c1 [Example 228, (S)-N-(2-amino-1-(3-chlorophenyl)ethyl)-4-(3-amino-6-cyclohexylpyrazin-2-yl)-2-fluorobenzamide]
0.0209	Cn1nccc1-c1cnc(N)c(-c2ccc(C(=O)N[C@H](CN)c3cccc(Cl)c3)c(F)c2)c1 [Example 233, (S)-N-(2-amino-1-(3-chlorophenyl)ethyl)-4-(2-amino-5-(1-methyl-1H-pyrazol-5-yl)pyridin-3-yl)-2-fluorobenzamide]
0.0199	Cn1cc(-c2cnc(N)c(-c3ccc(C(=O)N[C@H](CO)c4cc(F)cc(CF)c4)c(F)c3)c2)cn1 [Example 240, (S)-4-(2-amino-5-(1-methyl-1H-pyrazol-4-yl)pyridin-3-yl)-2-fluoro-N-(1-(3-fluoro-5-(fluoromethyl)phenyl)-2-hydroxyethyl) benzamide]
0.0121	Cc1nn(C)cc1-c1cnc(N)c(-c2ccc(C(=O)N[C@H](CO)c3cc(F)cc(CF)c3)c(F)c2)c1 [Example 243, (S)-4-(2-amino-5-(1,3-dimethyl-1H-pyrazol-4-yl)pyridin-3-yl)-2-fluoro-N-(1-(3-fluoro-5-(fluoromethyl)phenyl)-2-hydroxyethyl) benzamide]
0.0127	Nc1ncc(C2CCOCC2)nc1-c1ccc(C(=O)N[C@H](CO)c2cc(F)cc(Br)c2)c(F)c1 [Example 259, (S)-4-(3-amino-6-(tetrahydro-2H-pyran-4-yl)pyrazin-2-yl)-N-(1-(3-bromo-5-fluorophenyl)-2-hydroxyethyl)-2-fluorobenzamide]
0.0168	Cc1nn(C(F)F)cc1-c1cnc(N)c(-c2ccc(C(=O)N[C@H](CO)c3cccc(CF)c3)c(F)c2)c1 [Example 261, (S)-4-(2-amino-5-(1-(difluoromethyl)-3-methyl-1H-pyrazol-4-yl)pyridin-3-yl)-2-fluoro-N-(1-(3-(fluoromethyl)phenyl)-2-hydroxyethyl) benzamide]

Second part, the molecule before the results:

SMILES	IC50 [nM]
Nc1ncc([C@H]2CC[C@@H](O)[C@@H](F)C2)nc1-c1ccc(C(=O)N[C@H](CO)c2cc(F)cc(Br)c2)c(F)c1 [Example 186, 4-(3-amino-6-((1S,3S,4R)-3-fluoro-4-hydroxycyclohexyl)pyrazin-2-yl)-N—((S)-1-(3-bromo-5-fluorophenyl)-2-hydroxyethyl)-2-fluorobenzamide]	0.653
Nc1ncc([C@H]2CC[C@H](O)[C@H](F)C2)nc1-c1ccc(C(=O)N[C@H](CO)c2cc(F)cc(Br)c2)c(F)c1 [Example 188, 4-(3-amino-6-((1S,3R,4S)-3-fluoro-4-hydroxycyclohexyl)pyrazin-2-yl)-N—((S)-1-(3-bromo-5-fluorophenyl)-2-hydroxyethyl)-2-fluorobenzamide]	0.0469
Nc1ncc([C@@H]2CC[C@@H](O)[C@H](F)C2)nc1-c1ccc(C(=O)N[C@H](CO)c2cc(F)cc(I)c2)c(F)c1 [Example 190, 4-(3-amino-6-((1R,3R,4R)-3-fluoro-4-hydroxycyclohexyl)pyrazin-2-yl)-2-fluoro-N—((S)-1-(3-fluoro-5-iodophenyl)-2-hydroxyethyl)benzamide]	0.0176
Nc1ncc([C@H]2CC[C@H](O)CC2)nc1-c1ccc(C(=O)N[C@H]2C[C@@H]2c2ccccc2)c(F)c1 [Example 202, 4-(3-amino-6-((1r,4S)-4-hydroxycyclohexyl)pyrazin-2-yl)-2-fluoro-N-((1S,2R)-2-phenylcyclopropyl)benzamide]	0.152
Cn1cc(-c2cnc(N)c(-c3ccc(C(=O)N[C@H](CO)c4ccc(F)c(Cl)c4)c(F)c3)c2)cn1 [Example 241, (S)-4-(2-amino-5-(1-methyl-1H-pyrazol-4-yl)pyridin-3-yl)-N-(1-(3-chloro-4-fluorophenyl)-2-hydroxyethyl)-2-fluorobenzamide]	0.944
Cc1c(-c2cnc(N)c(-c3ccc(C(=O)N[C@H](CO)c4cc(F)cc(CF)c4)c(F)c3)c2)cnn1C [Example 242, (S)-4-(2-amino-5-(1,5-dimethyl-1H-pyrazol-4-yl)pyridin-3-yl)-2-fluoro-N-(1-(3-fluoro-5-(fluoromethyl)phenyl)-2-hydroxyethyl) benzamide]	0.00875
Cn1cc(-c2cnc(N)c(-c3ccc(C(=O)N[C@H](CO)C4CCCCC4)c(F)c3)c2)cn1 [Example 244, (S)-4-(2-amino-5-(1-methyl-1H-pyrazol-4-yl)pyridin-3-yl)-N-(1-cyclohexyl-2-hydroxyethyl)-2-fluorobenzamide]	157
Cn1cc(-c2cnc(N)c(-c3ccc(C(=O)N[C@H](CO)c4cc(F)cc(C(F)F)c4)c(F)c3)c2)cn1 [Example 253, (S)-4-(2-amino-5-(1-methyl-1H-pyrazol-4-yl)pyridin-3-yl)-N-(1-(3-(difluoromethyl)-5-fluorophenyl)-2-hydroxyethyl)-2-fluorobenzamide]	0.106
Cn1nccc1-c1cnc(N)c(-c2ccc(C(=O)N[C@H](CO)c3cccc(CF)c3)c(F)c2)c1 [Example 254, (S)-4-(2-amino-5-(1-methyl-1H-pyrazol-5-yl)pyridin-3-yl)-2-fluoro-N-(1-(3-(fluoromethyl)phenyl)-2-hydroxyethyl) benzamide]	0.0599
Cc1nn(C)cc1-c1cnc(N)c(-c2ccc(C(=O)N[C@H](CO)c3cccc(CF)c3)c(F)c2)c1 [Example 255, (S)-4-(2-amino-5-(1,3-dimethyl-1H-pyrazol-4-yl)pyridin-3-yl)-2-fluoro-N-(1-(3-(fluoromethyl)phenyl)-2-hydroxyethyl) benzamide]	0.0287
Cc1c(-c2cnc(N)c(-c3ccc(C(=O)N[C@H](CO)c4cccc(CF)c4)c(F)c3)c2)cnn1C [Example 256, (S)-4-(2-amino-5-(1,5-dimethyl-1H-pyrazol-4-yl)pyridin-3-yl)-2-fluoro-N-(1-(3-(fluoromethyl)phenyl)-2-hydroxyethyl) benzamide]	0.0258
Nc1ncc(C2CCOCC2)nc1-c1ccc(C(=O)N[C@H](CO)c2cccc(CF)c2)c(F)c1 [Example 257, (S)-4-(3-amino-6-(tetrahydro-2H-pyran-4-yl)pyrazin-2-yl)-2-fluoro-N-(1-(3-(fluoromethyl)phenyl)-2-hydroxyethyl) benzamide]	0.0197
Nc1ncc(C2CCOCC2)nc1-c1ccc(C(=O)N[C@H](CO)c2cccc(Br)c2)c(F)c1 [Example 258, (S)-4-(3-amino-6-(tetrahydro-2H-pyran-4-yl)pyrazin-2-yl)-N-(1-(3-bromophenyl)-2-hydroxyethyl)-2-fluorobenzamide]	0.0343
Cc1c(-c2cnc(N)c(-c3ccc(C(=O)N[C@H](CO)c4cccc(CF)c4)c(F)c3)c2)cnn1C(F)F [Example 260, (S)-4-(2-amino-5-(1-(difluoromethyl)-5-methyl-1H-pyrazol-4-yl)pyridin-3-yl)-2-fluoro-N-(1-(3-(fluoromethyl)phenyl)-2-hydroxyethyl) benzamide]	0.0208
Cc1c(-c2cnc(N)c(-c3ccc(C(=O)N[C@H](CO)c4cc(F)cc(CF)c4)c(F)c3)c2)cnn1C(F)F [Example 262, (S)-4-(2-amino-5-(1-(difluoromethyl)-5-methyl-1H-pyrazol-4-yl)pyridin-3-yl)-2-fluoro-N-(1-(3-fluoro-5-(fluoromethyl)phenyl)-2-hydroxyethyl) benzamide]	0.014
Cc1c(-c2cnc(N)c(-c3ccc(C(=O)N[C@H](CO)c4cccc(Cl)c4)c(F)c3)c2)cnn1C(F)F [Example 264, (S)-4-(2-amino-5-(1-(difluoromethyl)-5-methyl-1H-pyrazol-4-yl)pyridin-3-yl)-N-(1-(3-chlorophenyl)-2-hydroxyethyl)-2-fluorobenzamide]	0.0431
Cn1nncc1-c1cnc(N)c(-c2ccc(C(=O)N[C@H](CO)c3cc(F)cc(Br)c3)c(F)c2)c1 [Example 265]	0.031

Reference: US9242996B2 (Novartis AG, priority 2013, dated 2016)
